ChEMBL document CHEMBL1201862, “PubChem BioAssay data set” (2004)
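48-hour exposure; five concentrations; linearly interpolated endpoints. Here, GI50 denotes the concentration required for 50% inhibition of growth.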 Calls of active or inactive are those of the source. Rule as the data show it: active = GI50 up to about 1.1 µM and inactive = higher.

How the values were obtained:
Test in all cases: growth of human tumour cells (NCI), 48 h
T47D = tested on: T47D
XF498 = tested on: XF498
SNB-78 = tested on: SNB-78
LXFL 529 = tested on: LXFL 529
M19-MEL = tested on: M19-MEL
DMS-114 = tested on: DMS-114
KM-20L2 = tested on: KM-20L2
HOP-18 = tested on: HOP-18
RXF 631 = tested on: RXF 631

Row | SMILES | GI50 (T47D) | GI50 (LXFL 529) | GI50 (M19-MEL) | other results
1 | Oc1cc(/C=C/c2ccccc2)nc2cc3c(cc12)OCO3 | 3.28 µM (inactive) | – | – | –
2 | CCNc1ccc2c(c1)C(=O)N(OS(C)(=O)=O)C2=O | > 100 µM (inactive) | – | – | –
3 | O=C(O)c1nn(-c2ccc(Cl)cc2)c2c1C(=O)c1ccccc1C2=O | > 100 µM (inactive) | – | – | –
4 | CCn1c(-c2c(Cl)cc(O)cc2Cl)cc2c(Cl)cc(O)cc21 | 7.62 µM (inactive) | – | – | –
5 | O=P(O)(CCP(=O)(O)c1ccccc1)c1ccccc1 | > 100 µM (inactive) | – | – | –
6 | CCOC(=O)c1c(SCCN2CCCCC2)n(-c2ccccc2)c(=S)n(-c2ccccc2)c1=O | 4.6 µM (inactive) | – | – | –
7 | CCCc1cn2c(/C=N/NC(=N)N)c(-c3ccc([N+](=O)[O-])cc3)nc2s1 | 1.67 µM (inactive) | – | – | –
8 | O=C1OCCC12CN(Cc1ccccc1)N=N2 (centres undefined) | > 100 µM (inactive) | – | – | –
9 | CS(=O)(=O)N1CC(CCl)c2ccc([N+](=O)[O-])cc21 (centres undefined) | > 100 µM (inactive) | – | – | –
10 | C[n+]1ccc2/c(=C\C#N)c3ccccc3n21 | 5.65 µM (inactive) | – | – | –
11 | CC(C)CNC(=O)Cn1c(-c2ccccc2)cc2ccccc21 | > 100 µM (inactive) | – | – | –
12 | c1ccc(SC(CCCCOC2CCCCO2)Sc2ccccc2)cc1 (centres undefined) | – | 41.1 µM (inactive) | 46.6 µM (inactive) | GI50 (XF498): > 100 µM (inactive); GI50 (SNB-78): 97.1 µM (inactive); GI50 (DMS-114): 34.1 µM (inactive)
13 | COc1ccc(/C=N/N2C(=O)c3c(N)c(C#N)c(-c4ccccc4)c(-c4ccccc4)c3C2=O)cc1 | > 100 µM (inactive) | – | – | –
14 | CC(=O)OCC1OC(OCCCOP(=O)(OCCC#N)OCC2OC(n3cnc4c(N)ncnc43)C(OC(=O)c3ccccc3)C2OC(=O)c2ccccc2)C(OC(C)=O)C(OC(C)=O)C1OC(C)=O (centres undefined) | > 100 µM (inactive) | – | – | –
15 | Cc1ccc(S(=O)(=O)NC(=O)NC(Cc2ccc(O)c(O)c2)C(=O)O)cc1 (centres undefined) | > 100 µM (inactive) | – | – | –
16 | Cc1cc2c(C)n(Cc3ccccc3Cl)nc2c(C(=O)O)c1C | – | > 100 µM (inactive) | > 100 µM (inactive) | GI50 (XF498): > 100 µM (inactive); GI50 (SNB-78): > 100 µM (inactive); GI50 (KM-20L2): > 100 µM (inactive); GI50 (HOP-18): > 100 µM (inactive)
17 | CC(C)C(=S)N(C)O | – | 2.39 µM (inactive) | 11.4 µM (inactive) | GI50 (SNB-78): 61.2 µM (inactive); GI50 (KM-20L2): 14.5 µM (inactive); GI50 (RXF 631): 11.7 µM (inactive); GI50 (DMS-114): 2.43 µM (inactive)

Row | SMILES | GI50 (T47D) | GI50 (LXFL 529) | GI50 (M19-MEL) | other results
18 | CCOC(=O)C[C@@H](C)[C@]1(C(=O)OC)CCCC1=O | – | > 100 µM (inactive) | > 100 µM (inactive) | GI50 (XF498): > 100 µM (inactive); GI50 (SNB-78): > 100 µM (inactive); GI50 (KM-20L2): > 59.2 µM (inactive); GI50 (HOP-18): > 100 µM (inactive); GI50 (DMS-114): > 44.4 µM (inactive)
19 | COC(=O)CC1NC(=O)C1C(C)(OC)OC (centres undefined) | – | > 100 µM (inactive) | > 100 µM (inactive) | GI50 (XF498): > 100 µM (inactive); GI50 (KM-20L2): > 100 µM (inactive); GI50 (RXF 631): > 100 µM (inactive); GI50 (DMS-114): > 100 µM (inactive)
20 | CC(=O)SC(C[N+](=O)[O-])c1ccccc1 (centres undefined) | 10.4 µM (inactive) | – | – | –
21 | COc1cc(OC)c2c(O)c(S(=O)(=O)c3ccc(C)cc3)c(=O)oc2c1 | > 100 µM (inactive) | – | – | –
22 | CC(=O)OC1COC(Nc2ccc(C(C)=O)cc2)C(OC(C)=O)C1OC(C)=O (centres undefined) | – | > 100 µM (inactive) | > 100 µM (inactive) | GI50 (SNB-78): > 100 µM (inactive); GI50 (KM-20L2): > 100 µM (inactive); GI50 (HOP-18): > 100 µM (inactive); GI50 (RXF 631): > 100 µM (inactive); GI50 (DMS-114): > 100 µM (inactive)
23 | COc1ccc(/C=N/NC(=O)C2=C(N)N(c3ccccc3)C(=C(C#N)C#N)S2)cc1 | – | > 100 µM (inactive) | > 100 µM (inactive) | GI50 (HOP-18): > 100 µM (inactive)
24 | COc1ccc(-c2cc(-c3ccccc3)nc(/N=C\c3ccccc3)n2)c(O)c1 | 5.62 µM (inactive) | – | – | –
25 | COc1cc(OC)c(-n2[nH]c(=O)n(C)c2=O)c(OC)c1 | > 100 µM (inactive) | – | – | –
26 | O=C(NC(=O)c1cn(CCN2CCN(C(=O)NCCCCCCNC(=O)N3CCN(CCn4cc(C(=O)NC(=O)OCc5ccccc5)c(=O)[nH]c4=O)CC3)CC2)c(=O)[nH]c1=O)OCc1ccccc1 | – | – | > 100 µM (inactive) | GI50 (SNB-78): > 100 µM (inactive); GI50 (KM-20L2): > 100 µM (inactive); GI50 (HOP-18): > 100 µM (inactive); GI50 (RXF 631): > 100 µM (inactive); GI50 (DMS-114): > 100 µM (inactive)
27 | COc1ccc2c3c([nH]c2c1[N+](=O)[O-])C(C)N(Cc1ccc([N+](=O)[O-])cc1)CC3 (centres undefined) | – | 5.7 µM (inactive) | – | GI50 (SNB-78): 26.2 µM (inactive); GI50 (KM-20L2): 10.8 µM (inactive)
28 | COC(=O)C(=O)C(C(=O)C(N)=O)c1nc2ccc(C(=O)c3ccccc3)cc2nc1O (centres undefined) | 70.5 µM (inactive) | – | – | –
29 | C[C@H]1C[C@H]2[C@@H]3C(C)(C)O[C@]4(O)C(=O)[C@]5(O)[C@@H](C)CC[C@H]1[C@]25C(=O)[C@]34C | 25.2 µM (inactive) | – | – | –
30 | CCN(CC)c1ccc(/C=C/C2=NN(c3cccc(S(=O)(=O)O)c3)C3(C2)SCC(=O)N3c2nc3ccccc3s2)cc1 (centres undefined) | 17.6 µM (inactive) | – | – | –
31 | C/C(=C1/CCC/C(=C(/C)c2ccccc2)C1=O)c1ccccc1 | – | 43.1 µM (inactive) | 24.9 µM (inactive) | GI50 (XF498): 30.6 µM (inactive); GI50 (SNB-78): 36.5 µM (inactive); GI50 (KM-20L2): 40.5 µM (inactive); GI50 (HOP-18): > 100 µM (inactive); GI50 (DMS-114): 21.7 µM (inactive)
32 | CNC(=O)NCCN1CC2CCC(CC2)C1 | > 10 µM (inactive) | – | – | –
33 | COC1OC2COC(c3ccccc3)OC2C(O)C1Br (centres undefined) | – | > 100 µM (inactive) | > 100 µM (inactive) | GI50 (XF498): > 100 µM (inactive); GI50 (SNB-78): > 100 µM (inactive); GI50 (KM-20L2): > 10 µM (inactive); GI50 (HOP-18): > 100 µM (inactive)
